Assay results as given in PMC10324562, “Inhibitory NKG2A^+ and absent activating NKG2C^+ NK cell responses are associated with the development of EBV^+ lymphomas” (Frontiers in Immunology, 2023).
Ends that are not written are not given here.

B1: Monalizumab: α-NKG2A blocking monoclonal antibody (Innate Pharma) (antibody, chains of the INN, looked up, V domains shown)
VH: QVQLVQSGAEVKKPGASVKVSCKASGYTFTSYWMNWVRQAPGQGLEWMGRIDPYDSETHYAQKLQGRVTMTTDTSTSTAYMELRSLRSDDTAVYYCARGGYDFDVGTLYWFFDVWGQGTTVTVSS
VL: DIQMTQSPSSLSASVGDRVTITCRASENIYSYLAWYQQKPGKAPKLLIYNAKTLAEGVPSRFSGSGSGTDFTLTISSLQPEDFATYYCQHHYGTPRTFGGGTKVEIK

What follows are molecules tested on EBV-infected K562-CR2-HLA-E*0101/0101 cells (assay: Cell proliferation assay, K562-CR2-HLA-E*0101/0101). Conditions: GGDPHLPTL-pulsed (300 µM) K562-CR2-HLA-E*0101/0101 with NKG2A+NKG2C- or NKG2A+NKG2C+ NK cells, Monalizumab 10 µg/mL; Figure 2H.
Type: cell-based, human
Experimental: (§1) For the cell proliferation assays MHC-I-deficient K562-CR2, K562-CR2-HLA-E*0103/0103 or K562-CR2-HLA-E*0101/0101 target cells were established and maintained as described before ([16]). The cells were then always infected with the marmoset B-lymphoblastoid cell line B95-8 derived EBV-strain, which encodes for the GGDPHLPTL LMP-1 variant, (MOI=1) ([16]) for 3 days. Sorted NKG2C^-NKG2A^+, NKG2C^+NKG2A^- and NKG2C^+NKG2A^+ NK cells were used as effector cells and were quickly thawed at 37°C, washed, and pre-activated overnight in RPMI, 10% FCS, 1% L-glutamine, 10 ng/ml IL-12 and 100 ng/ml IL-18 at 37°C. The NK cells were then harvested by centrifugation at 400xg for 5 minutes and washed once with Opti-MEM. […] All cells were then harvested, fixed with the FIX & PERM Cell Fixation & Cell Permeabilization Kit (Thermo-Scientific) and analysed by flow-cytometry, as described below. […]
(§2) Figure 2 HLA-E variants are associated with the development of EBV^+ lymphomas and inhibit NKG2A^+ NK cells. […] (E) Enriched NKG2A^+NKG2C^- NK cells were co-cultured with EBV-infected K562-CR2, K562-CR2-HLA-E*0103/0103 or K562-CR2-HLA-E*0101/0101 cells and were subsequently analyzed by flow-cytometry. […] Viable EBV-infected K562-CR2-HLA-E*0103/0103 or K562-CR2-HLA-E*0101/0101 cells or enriched NKG2A^+NKG2C^- NK cells was subsequently analysed by flow-cytometry. […]

B1 was tested, and the “EBV-infected K562-CR2 cell dissemination on blocking of NKG2A” value was “reduction”.

Each molecule was assayed against T1, HLA-E on the surface of Raji cells (Homo sapiens, UniProt P13747) (assay: HLA-E stabilisation assay (flow-cytometry)). Conditions: HLA-E*0101/0101 Raji cells transfected with peptide, HLA-E surface expression after 16h by flow-cytometry; three independent replicates; Figure 1E; read-out: HLA-E upregulation (EC50).
T1 construct: host or cells: Raji cells
Type: cell-based
Experimental: For the HLA-E stabilization experiments, HLA-E*0101/0101-encoding Raji cells (German Collection of Microorganisms and Cell Cultures) were maintained in 90% RPMI 1640 + 10% heat-inactivated FCS (Thermo-Fisher). The cells were individually transfected with indicated concentrations of the LMP-1 peptides (Peptides&Elephants) using the Pierce Protein Transfection Reagent according to the manufacturer’s instructions (Thermo-Fisher). After 16h, the cells were either fixed and analyzed for the HLA-E expression by flow-cytometry as described below, or washed once with Opti-MEM I Reduced Serum Medium (Gibco) and subsequently used in NKG2A^+ NK cell inhibition experiments.
The following conjugated mouse anti-human mAB were used for flow-cytometry: PE-CD19 (4G7), BV421-CD56 (NCAM 16.2), BV510-NKG2A (131411), PE-CD71 (M-A712) (all: BD Biosciences), AF647-NKG2C (134591, R&D Systems), APC-HLA/E (3D12) (Biolegend). Dead cells were identified using 7-AAD, LIVE/DEAD Fixable Green or Near-IR Dead Cell Stain Kit (both: Thermo-Scientific). Flow-cytometry analysis was performed on a FACSCanto2 platform and FACSDiva Version 10.7.2 (BD).
Figure 1 LMP-1-derived peptides are associated with the development of EBV^+ lymphomas and inhibit NKG2A^+ NK cells. (A–D) Distribution of LMP-1 variants in patients with (A) asymptomatic reactivations (N=96), (B) symptomatic reactivations (N=96), (C) EBV^+HL (N=25), (D) EBV^+nHL (N=38). Fractions represent the relative frequency of the LMP-1 peptide GGDPHLPTL, GSDPHLPTL, GGDPHLPPL, GGDPPLPTL, GCDPHLPTL, GIDPHLPTL, GAGPHLPTL, GGDTPLPTL, GDDPHLPTL, GGDPHVPTL and GTDPHLPTL variants. ^+ The frequency of the LMP-1 variants was compared to the asymptomatic cohort by the Chi^2 Test. (E, F) HLA-E stabilisation assay. (E) HLA-E stabilisation assay: Raji cells were incubated with indicated concentrations of the positive control (VMAPRTLFL) or the LMP-1 peptide-derived GGDPHLPTL, GSDPHLPTL, GGDPHLPPL, GGDPPLPTL, GCDPHLPTL, GIDPHLPTL, GAGPHLPTL, GGDTPLPTL, GDDPHLPTL, GGDPHVPTL and GTDPHLPTL variants. The HLA-E surface expression was then assessed after 16h of co-culture by flow-cytometry. Plots represent the mean ( ± SD) of three independent replicates. Each peptide was compared to the positive control using RM one-way ANOVA (with the Geisser-Greenhouse correction). (F) NKG2A^+NKG2C^- NK cell inhibition assay: Raji cells were incubated with indicated concentrations of the positive control (VMAPRTLFL) or the LMP-1 peptide-derived GGDPHLPTL, GSDPHLPTL, GGDPHLPPL, GGDPPLPTL, GCDPHLPTL, GIDPHLPTL, GAGPHLPTL, GGDTPLPTL, GDDPHLPTL, GGDPHVPTL and GTDPHLPTL variants and were then co-cultured with pre-activated NKG2A^+NKG2C^- NK cells from 12 blood donors. Plots represent the mean ( ± SD) of 12 independent replicates. Each peptide was compared to the positive control using RM one-way ANOVA (with the Geisser-Greenhouse correction). p < 0.05 was considered significant. *p < 0.05; **p < 0.01; ***p < 0.001. EBV^+HL, EBV^+ Hodgkin lymphoma, EBV^+nHL, EBV^+ non-Hodgkin lymphoma, Pos. Ctrl., positive control. TEXT PRINTED IN THE PICTURE: (E) Pos. Ctrl.: 81.4 μM | (E) GTDPHLPTL: 167.7 μM | (E) GGDPHLPTL: 162 μM | (E) GGDPPLPTL: 153.8 μM | (E) GIDPHLPTL: 313.9 μM | (E) GCDPHLPTL: 304.8 μM | (E) GDDPHLPTL: 370.3 μM | (E) GAGPHLPTL: 317.1μM | (E) GGDPHVPTL: 759 μM | (E) GSDPHLPTL: 613.9 μM | (E) GGDPHLPPL: 682 μM | (E) GGDTPLPTL: 1110 μM | (F) Pos. […] The y-axis titles are 'HLA-E upregulation' (E) and 'NKG2A+NKG2C- NK cell inhibition' (F). / Panels A–D: the percentages and counts (e.g. 44.8%, 43/96) are frequencies of peptide variants in patient cohorts, not results for a substance, and are left out.

In order of falling EC50:
1. GGDTPLPTL [GGDTPLPTL]  1110 µM
2. GGDPHVPTL [GGDPHVPTL]  759 µM
3. GGDPHLPPL [GGDPHLPPL]  682 µM
4. GSDPHLPTL [GSDPHLPTL]  614 µM
5. GDDPHLPTL [GDDPHLPTL]  370 µM
6. GAGPHLPTL [GAGPHLPTL]  317 µM
7. GIDPHLPTL [GIDPHLPTL]  314 µM
8. GCDPHLPTL [GCDPHLPTL]  305 µM
9. GTDPHLPTL [GTDPHLPTL]  168 µM
10. GGDPHLPTL [GGDPHLPTL]  162 µM
11. GGDPPLPTL [GGDPPLPTL]  154 µM

These molecules were tested on EBV-infected K562-CR2-HLA-E*0103/0103 cells (assay: Cell proliferation assay, K562-CR2-HLA-E*0103/0103). Conditions: GGDPHLPTL-pulsed (300 µM) K562-CR2-HLA-E*0103/0103 with NKG2A+NKG2C- or NKG2A+NKG2C+ NK cells, Monalizumab 10 µg/mL; Figure 2H.
Type: cell-based, human
Experimental: as §1, §2

With B1 the “EBV-infected K562-CR2 cell dissemination on blocking of NKG2A” value was “reduction”.
